The results in this text go back to US5710123A, “Peptide inhibitors of selectin binding” (Centocor, Inc., priority 1995, dated 1998).

As a reminder, the IC50 is the concentration that inhibits the measured activity by half. Read a low IC50 as higher potency.

Where a SMILES comes first, the peptide text is derived from it. Bridges are numbered along the chain shown (N, C = ends). Where no end group is shown, it is not given here.

This test deals with T1, P-selectin (Homo sapiens, UniProt P16109).
T1 construct: from tissue; host or cells: outdated human platelet packs from a blood bank
T1 sequence (P16109 42-830): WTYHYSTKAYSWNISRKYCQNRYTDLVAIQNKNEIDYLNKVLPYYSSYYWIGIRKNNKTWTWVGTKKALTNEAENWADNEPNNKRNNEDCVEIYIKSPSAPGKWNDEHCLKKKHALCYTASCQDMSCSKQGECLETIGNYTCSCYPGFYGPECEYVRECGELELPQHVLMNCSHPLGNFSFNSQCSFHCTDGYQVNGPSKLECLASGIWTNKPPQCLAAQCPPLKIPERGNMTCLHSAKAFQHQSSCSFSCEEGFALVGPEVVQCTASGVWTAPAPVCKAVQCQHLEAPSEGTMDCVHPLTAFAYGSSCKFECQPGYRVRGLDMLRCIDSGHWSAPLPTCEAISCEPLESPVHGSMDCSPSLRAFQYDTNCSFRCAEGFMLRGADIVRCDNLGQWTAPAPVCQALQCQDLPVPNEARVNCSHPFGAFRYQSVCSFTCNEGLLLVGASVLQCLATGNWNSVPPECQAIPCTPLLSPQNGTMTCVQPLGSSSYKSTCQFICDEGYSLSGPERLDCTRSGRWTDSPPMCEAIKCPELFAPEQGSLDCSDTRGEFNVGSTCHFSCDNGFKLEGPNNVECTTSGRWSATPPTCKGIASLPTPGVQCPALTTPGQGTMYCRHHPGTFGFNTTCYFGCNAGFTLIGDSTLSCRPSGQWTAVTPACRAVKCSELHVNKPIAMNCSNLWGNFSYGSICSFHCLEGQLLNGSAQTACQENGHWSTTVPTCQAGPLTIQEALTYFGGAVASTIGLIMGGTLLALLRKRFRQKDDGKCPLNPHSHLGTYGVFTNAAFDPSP
Briefly: Inhibition of binding of human neutrophils to P-selectin (neutrophil adhesion to purified immobilized P-selectin, myeloperoxidase readout). The format is cell-based. As to conditions: P-selectin purified from human platelets, plated at 5 micrograms/mL, peptides tested 1.0 mM to 0.001 mM. The text has this:
Peptides can be screened for their ability to inhibit adhesion to cells, for example, neutrophil adhesion to purified P-selectin immobilized on plastic wells, using the assay described by Geng, et al., Nature 343, 757-760 1990). Human neutrophils are isolated from heparinized […] blood by density gradient centrifugation on Mono-Poly resolving media, Flow Laboratories. Neutrophil suspensions are greater than 98% pure and greater than 95% viable by trypan blue exclusion. For adhesion assays, neutrophils are suspended at a concentration of 2×10^6 cells/mL in Hanks' balanced salt solution containing 1.26 mM Ca^2+ and 0.81 mM Mg^2+ (HBSS, Gibco) with […] human serum albumin (HBSS/HSA). Adhesion assays are conducted in triplicate in 96-well microtiter plates, Corning, incubated at 4° C. overnight with 50 microliters of various protein solutions. P-selectin is isolated from human platelet lysates by immunoaffinity chromatography on antibody S12-Sepharose™ and ion-exchange chromatography on a Mono-Q™ column (FLPC, Pharmacia Fine Chemicals), as follows. Outdated human platelet packs (100 units) obtained from a blood bank and stored at 4° C. are pooled, adjusted to 5 mM EDTA at pH 7.5, centrifuged at 4,000 rpm for 30 minutes in 1 liter bottles, then washed three times with 1 liter of 0.1M NaCl, 20 mM Tris pH 7.5 (TBS), 5 mM EDTA, 5 mM benzamidine. The pellets are then resuspended in a minimum amount of wash buffer and made 1 mM in DIFP, then frozen in 50 mL screwtop tubes at -80° C. The frozen platelets are thawed and resuspended in 50 mL TBS, 5 mM benzamidine, 5 mM EDTA pH 7.5, […]. The suspension is frozen and thawed two times in a dry ice-acetone bath using a 600 mL lyophilizing flask, then homogenized in a glass/teflon mortar and pestle and made 1 mM in DIFP. The NaCl concentration is adjusted to 0.5M with a stock solution of 4M NaCl. After stirring the suspension at 4° C., it is centrifuged in polycarbonate tubes at 33,000 rpm for 60 minutes at 4° C. The supernatant (0.5M NaCl wash) is removed and saved; this supernatant contains the soluble form of P-selectin. Care is taken not to remove the top part of the pellet with the supernatant. The pellets are then homogenized in extraction buffer (TBS, 5 mM benzamidine, 5 mM EDTA, pH 7.5, 100 μM leupeptin, 2% Triton X-100). After centrifugation at 19,500 rpm for 25 minutes at 4° C., the supernatant is removed. The extraction procedure is repeated with the pellet and the supernatant is combined with the first supernatant. The combined extracts, which contain the membrane form of P-selectin, are adjusted to 0.5M NaCl. The soluble fraction (0.5M NaCl wash) and the membrane extract (also adjusted to 0.5M NaCl) are absorbed with separate pools of the monoclonal antibody S12 (directed to P-selectin) previously coupled to Affigel (Biorad) at 5 mg/mL for 2 hours at 4° C. After letting the resins settle, the supernatants are removed. The S12 Affigel containing bound GMP-140 is then loaded into a column and washed overnight at 4° C. with 400 mL of 0.5M NaCl, 20 mM Tris pH 7.5, 0.01% Lubrol PX. Bound P-selectin is eluted from the S12 Affigel with 100 mL of 80% ethylene glycol, 1 mM MES pH 6.0, 0.01% Lubrol PX. Peak fractions with absorbance at 280 nm are pooled. Eluates are dialyzed against TBS with 0.05% Lubrol, then applied to a Mono Q column (FPLC from Pharmacia). The concentrated protein is step eluted with 2M NaCl, 20 mM Tris pH 7.5 (plus 0.05% Lubrol PX for the membrane fraction). Peak fractions are dialyzed into TBS pH 7.5 (plus 0.05% Lubrol PX for the membrane fraction). P-selectin is plated at 5 micrograms/mL and the control proteins: human serum albumin (Alb), platelet glycoprotein IIb/IIIa (IIb), von Willsbrand factor (vWF), fibrinogen (FIB), thrombomodulin (TM), gelatin (GEL) or human serum (HS), are added at 50 micrograms/mL. […]
For the molecule `CC(C)C[C@H](NC(=O)[C@H](C)NC(=O)[C@H](Cc1c[nH]cn1)NC(=O)[C@H](CCCCN)NC(=O)[C@H](CCCCN)NC(=O)[C@H](CCCCN)NC(=O)[C@H](CC(C)C)NC(=O)[C@@H](N)CS)C(=O)N[C@@H](CS)C(=O)N[C@@H](Cc1ccc(O)cc1)C(N)=O` [SEQ ID NO: 1, Cystinyl-leucyl-lysyl-lysyl-lysyl-histidyl-alanyl-leucyl-cystinyl-tyrosine- amide] (H-CLKKKHALCY-NH2), the IC50 came to 269 µM.
`CC(C)C[C@H](NC(=O)[C@H](C)NC(=O)[C@H](CC(C)C)NC(=O)[C@H](CCCCN)NC(=O)[C@H](CCCCN)NC(=O)[C@H](CCCCN)NC(=O)[C@H](CO)NC(=O)[C@@H](N)CS)C(=O)N[C@@H](CS)C(=O)N[C@@H](Cc1ccc(O)cc1)C(N)=O` [SEQ ID NO: 2, Cystinyl-serinyl-lysyl-lysyl-lysyl-leucyl-alanyl-leucyl-cystinyl-tyrosine-amide] (H-CSKKKLALCY-NH2) returned a half-inhibitory concentration (IC50) of 48 µM.
In the case of `CC(C)C[C@H](NC(=O)[C@H](C)NC(=O)[C@H](C)NC(=O)[C@H](CCCCN)NC(=O)[C@H](CC(C)C)NC(=O)[C@H](CCCCN)NC(=O)[C@H](Cc1c[nH]cn1)NC(=O)[C@@H](N)CS)C(=O)N[C@@H](CS)C(=O)N[C@@H](Cc1ccc(O)cc1)C(N)=O` [SEQ ID NO: 3, Cystinyl-histidyl-lysyl-leucyl-lysyl-alanyl-alanyl-leucyl-cystinyl-tyrosine-amide] (H-CHKLKAALCY-NH2), the IC50 is 282 µM.
As to `CC(C)C[C@@H]1NC(=O)[C@H](C)NC(=O)[C@H](Cc2c[nH]cn2)NC(=O)[C@H](CCCCN)NC(=O)[C@H](CCCCN)NC(=O)[C@H](CCCCN)NC(=O)[C@H](CC(C)C)NC(=O)[C@@H](N)CSSC[C@@H](C(=O)N[C@@H](Cc2ccc(O)cc2)C(N)=O)NC1=O` [SEQ ID NO: 4, Cyclo-(cystinyl-leucyl-lysyl-lysyl-lysyl-histidyl-alanyl-leucyl-cystinyl)-tyrosine-amide] (H-CLKKKHALCY-NH2; disulfide 1-9), the IC50 was 626 µM.
Regarding `CC(C)C[C@@H]1NC(=O)[C@H](C)NC(=O)[C@H](CC(C)C)NC(=O)[C@H](CCCCN)NC(=O)[C@H](CCCCN)NC(=O)[C@H](CCCCN)NC(=O)[C@H](CO)NC(=O)[C@@H](N)CSSC[C@@H](C(=O)N[C@@H](Cc2ccc(O)cc2)C(N)=O)NC1=O` [SEQ ID NO: 5] (H-CSKKKLALCY-NH2; disulfide 1-9), the IC50 came to 78 µM.
Consider `CC(C)C[C@@H]1NC(=O)[C@H](C)NC(=O)[C@H](C)NC(=O)[C@H](CCCCN)NC(=O)[C@H](CC(C)C)NC(=O)[C@H](CCCCN)NC(=O)[C@H](Cc2c[nH]cn2)NC(=O)[C@@H](N)CSSC[C@@H](C(=O)N[C@@H](Cc2ccc(O)cc2)C(N)=O)NC1=O` [SEQ ID NO: 6, Cyclo-(cystinyl-histidyl-lysyl-leucyl-lysyl-alanyl-alanyl-leucyl-cystinyl)- tyrosine-amide] (H-CHKLKAALCY-NH2; disulfide 1-9), for which the IC50 stood at 2 µM.
“Ac-FKKKLALCY-NH2 [SEQ ID NO: 7, Ac-FKKKLALCY--NH2]” registered an IC50 of 74 µM.
The molecule “Ac-HKKKLALCY-NH2 [SEQ ID NO: 9, Ac-HKKKLALCY--NH2]” registered an IC50 of 11 µM.
The value for “Ac-LKKKLALCY-NH2 [SEQ ID NO: 12, Ac-LKKKLALCY--NH2]” was 26 µM; that for “Ac-NKKKLALCY-NH2 [SEQ ID NO: 14, Ac-NKKKLALCY--NH2]” was 53 µM; that for “Ac-SKAKLALCY-NH2 [SEQ ID NO: 19, Ac-SKAKLALCY--NH2]” was 60 µM.
“Ac-SKKKAALCY-NH2 [SEQ ID NO: 23, Ac-SKKKAALCY--NH2]” had an IC50 of 192 µM.
Molecule “Ac-SKKKLALCY-NH2 [SEQ ID NO: 49, Ac-SKKKLALCY--NH2]” registered an IC50 of 9 µM.
The value for “Ac-SKKKLALIY-NH2 [SEQ ID NO: 34, Ac-SKKKLALIY--NH2]” was 128 µM.
Take “Ac-SKKKLALLY-NH2 [SEQ ID NO: 37, Ac-SKKKLALLY--NH2]”: the half-maximal inhibitory concentration (IC50) came to 88 µM.
In turn, “Ac-SKKKLALVY-NH2 [SEQ ID NO: 39, Ac-SKKKLALVY--NH2]” gave an IC50 of 164 µM.
Molecule “Ac-SKKKTALCY-NH2 [SEQ ID NO: 47, Ac-SKKKTALCY--NH2]” came in with a half-maximal inhibitory concentration (IC50) of 82 µM.
“Ac-SKLKLALCY-NH2 [SEQ ID NO: 51, Ac-SKLKLALCY--NH2]” yielded an IC50 of 12 µM.
Molecule “Ac-SKRKLALCY-NH2 [SEQ ID NO: 53, Ac-SKRKLALCY--NH2]” displayed an IC50 of 12 µM.
The value for “Ac-SKRKRALCY-NH2 [SEQ ID NO: 55, Ac-SKRKRALCY--NH2]” was 26 µM; that for “Ac-SKRRLALCY-NH2 [SEQ ID NO: 57, Ac-SKRRLALCY--NH2]” was 8 µM.
Molecule “Ac-SRARLALCY-NH2 [SEQ ID NO: 61, Ac-SRARLALCY--NH2]” showed an IC50 of 47 µM.
In turn, “Ac-SRKKLALCY-NH2 [SEQ ID NO: 63, Ac-SRKKLALCY--NH2]” came in with an IC50 of 17 µM.
“Ac-SRKRLALCY-NH2 [SEQ ID NO: 65, Ac-SRKRLALCY--NH2]” registered an IC50 of 18 µM.
“Ac-SRRKLALCY-NH2 [SEQ ID NO: 68, Ac-SRRKLALCY--NH2]”: the IC50 stood at 27 µM.
The molecule “FKKKLALCY-NH2 [SEQ ID NO: 8, FKKKLALCY--NH2]” had an IC50 of 20 µM.
“HKKKLALCY-NH2 [SEQ ID NO: 10, HKKKLALCY--NH2]”: the half-inhibitory concentration (IC50) was determined as 55 µM.
As for “LKKKHALCY-NH2 [SEQ ID NO: 11, LKKKHALCY--NH2]”, the IC50 worked out at 178 µM.
In turn, “LKKKLALCY-NH2 [SEQ ID NO: 13, LKKKLALCY--NH2]” yielded an IC50 of 65 µM.
For “NKKKLALCY-NH2 [SEQ ID NO: 15, NKKKLALCY--NH2]”, the half-inhibitory concentration (IC50) was determined as 19 µM.
The molecule “PKKKLALCY-NH2 [SEQ ID NO: 16, PKKKLALCY--NH2]” displayed an IC50 of 103 µM.
The value for “QKKKLALCY-NH2 [SEQ ID NO: 17, QKKKLALCY--NH2]” was 1010 µM; that for “SHKKLALCY-NH2 [SEQ ID NO: 18, SHKKLALCY--NH2]” was 362 µM; that for “SKFKLALCY-NH2 [SEQ ID NO: 20, SKFKLALCY--NH2]” was 37 µM.
“SKHKLALCY-NH2 [SEQ ID NO: 21, SKHKLALCY--NH2]” gave a 50% inhibitory concentration (IC50) of 888 µM.
The molecule “SKKFLALCY-NH2 [SEQ ID NO: 22, SKKFLALCY--NH2]” had an IC50 of 554 µM.
